From patent US4450269A, “Mono-5-substituted-3-chloro-4H-1,2,6-thiadiazin-4-one antifungal agents” (FMC Corporation, priority 1980, dated 1984)
Where a name gives a salt, the structure may show the parent alone. Read-outs that look alike come from different tables or passages of the source.

Legend:
[1] = test system: Phytophthora infestans; assay type: cell-based; settings: PI, 48 hours
[2] = test system: Alternaria solani; assay: Mycelial growth test; assay type: cell-based; settings: AS; for inhibition at 5 ppm / inhibition at 10 ppm / inhibition at 20 ppm / inhibition at 40 ppm: Alternaria solani, 72 h, read-out: Percent Fungus Growth Inhibition; for Percent Fungus Growth Inhibition: 72 hours, hydrochloride

SMILES | Spore Germination Rating ([1]; 1.0 ppm) | Spore Germination Rating ([1]; 2.5 ppm) | Spore Germination Rating ([1]; 10 ppm) | Spore Germination Rating ([1]; 40 ppm) | inhibition at 5 ppm ([2]; 5 ppm) [%] | inhibition at 10 ppm ([2]; 10 ppm) [%] | inhibition at 20 ppm ([2]; 20 ppm) [%] | inhibition at 40 ppm ([2]; 40 ppm) [%] | Spore Germination Rating ([1]; 2.5 ppm, hydrochloride) | Percent Fungus Growth Inhibition ([2]; 5 ppm) [%] | Percent Fungus Growth Inhibition ([2]; 10 ppm) [%] | Percent Fungus Growth Inhibition ([2]; 20 ppm) [%] | Percent Fungus Growth Inhibition ([2]; 40 ppm) [%]
O=c1c(Cl)nsnc1Oc1cccc(C(F)(F)F)c1 [Compound 44, 3-chloro-5-[(3-trifluoromethyl)phenoxy]-4H--1,2,6-thiadiazin-4-one] | 2 (40-60) | 0 (0-10) | 0 (0-10) | 0 (0-10) | 52 | 62 | 100 | 100 | – | – | – | – | –
C[S+]([O-])c1ccc(Oc2nsnc(Cl)c2=O)cc1 (stereo not shown) [Compound 40, 3-chloro-5-[(4-methylsulfinyl)phenoxy]-4H-1,2,6,-thiadiazin-4-one] | 4 (80-100) | 3 (60-80) | 2 (40-60) | 0 (0-10) | 54 | 75 | 92 | 100 | – | – | – | – | –
Cc1ccc(Oc2nsnc(Cl)c2=O)c(C)c1 [Compound 23, 3-chloro-5-(2,4-dimethylphenoxy)-4H--1,2,6-thiadiazin-4-one] | 4 (80-100) | 2 (40-60) | 2 (40-60) | 0 (0-10) | 63 | 81 | 100 | 100 | – | – | – | – | –
CSc1ccc(Oc2nsnc(Cl)c2=O)cc1 [Compound 39, 3-chloro-5-[(4-methylthio)phenoxy]-4H-1,2,6,-thiadiazin-4-one] | 4 (80-100) | 4 (80-100) | 3 (60-80) | 3 (60-80) | 42 | 33 | 42 | 54 | – | – | – | – | –
CC(=O)Nc1cccc(Oc2nsnc(Cl)c2=O)c1 [Compound 42, 3-[(3-N--acetylamino)-phenoxy]-5-chloro-4H--1,2,6-thiadiazin-4-one] | 4 (80-100) | 4 (80-100) | 3 (60-80) | 0 (0-10) | 24 | 33 | 52 | 90 | – | – | – | – | –
COc1cc(Cl)cc(Oc2nsnc(Cl)c2=O)c1 [Compound 52, 3-chloro-5-[(3-chloro-5-methoxy)phenoxy]-4H--1,2,6-thiadiazin-4-one] | 4 (80-100) | 0 (0-10) | 0 (0-10) | 0 (0-10) | 52 | 71 | 90 | 90 | – | – | – | – | –
N#Cc1ccc(Oc2nsnc(Cl)c2=O)cc1 [Compound 10, 3-chloro-5-(4-cyanophenoxy)-4H--1,2,6-thiadiazin-4-one] | 0 (0-10) | 0 (0-10) | 0 (0-10) | 1 (10-40) | 54 | 79 | 92 | 92 | – | – | – | – | –
O=c1c(Cl)nsnc1Oc1ccccc1Br [Compound 34, 3-chloro-5-(2-bromophenoxy)-4H-1,2,6,-thiadiazin-4-one] | 4 (80-100) | 1 (10-40) | 0 (0-10) | 0 (0-10) | 100 | 100 | 100 | 100 | – | – | – | – | –
Cc1cc(Oc2nsnc(Cl)c2=O)cc(C)c1Cl [Compound 59, 3-chloro-5-[(4-chloro-3,5-dimethyl)phenoxy]-4H--1,2,6-thiadiazin-4-one] | 4 (80-100) | 1 (10-40) | 1 (10-40) | 0 (0-10) | 48 | 52 | 57 | 57 | – | – | – | – | –
Cc1cc(C)cc(Oc2nsnc(Cl)c2=O)c1 [Compound 25, 3-chloro-5-(3,5-dimethylphenoxy)-4H--1,2,6-thiadiazin-4-one] | 4 (80-100) | 1 (10-40) | 0 (0-10) | 0 (0-10) | 69 | 75 | 81 | 88 | – | – | – | – | –
O=c1c(Cl)nsnc1Oc1c(Cl)c(Cl)c(Cl)c(Cl)c1Cl [Compound 31, 3-chloro-5-(pentachlorophenoxy)-4H--1,2,6-thiadiazine-4-one] | 4 (80-100) | 3 (60-80) | 2 (40-60) | 2 (40-60) | 48 | 60 | 48 | 67 | – | – | – | – | –
Nc1ccc(Oc2nsnc(Cl)c2=O)cc1 [Compound 27, 5-(4-aminophenoxy)-3-chloro-4H--1,2,6-thiadiazine-4-one hydrochloride] | – | – | – | – | – | – | – | – | 3 (60-80) | 47 | 73 | 80 | 87
COc1cc(Oc2nsnc(Cl)c2=O)cc(OC)c1C(C)=O [Compound 61, 3-[(4-acetyl-3,5-dimethoxy)-phenoxy]-5-chloro-4H--1,2,6-thiadiazin-4-one] | 4 (80-100) | 4 (80-100) | 3 (60-80) | 0 (0-10) | 33 | 29 | 25 | 42 | – | – | – | – | –
O=c1c(Cl)nsnc1Oc1cccc2ccccc12 [Compound 32, 3-chloro-5(1-naphthoxy)-4H-1,2,6-thiadiazin-4-one] | 3 (60-80) | 1 (10-40) | 0 (0-10) | 0 (0-10) | 58 | 58 | 88 | 92 | – | – | – | – | –
Cc1ccc(Oc2nsnc(Cl)c2=O)cc1 [Compound 3, 3-chloro-5-(4-methylphenoxy)-4H--1,2,6-thiadiazin-4-one] | 3 (60-80) | 2 (40-60) | 0 (0-10) | 0 (0-10) | 19 | 63 | 100 | 100 | – | – | – | – | –
O=c1c(Cl)nsnc1Oc1c(Cl)cc(Cl)cc1Cl [Compound 30, 3-chloro-5-(2,4,6-trichlorophenoxy)-4H--1,2,6-thiadiazin-4-one] | 4 (80-100) | 1 (10-40) | 0 (0-10) | 0 (0-10) | 29 | 67 | 81 | 90 | – | – | – | – | –
O=c1c(Cl)nsnc1Oc1ccc(Cl)c(Cl)c1 [Compound 16, 3-chloro-5-(3,4-dichlorophenoxy)-4H--1,2,6-thiadiazin-4-one] | 1 (10-40) | 0 (0-10) | 0 (0-10) | 0 (0-10) | 38 | 50 | 56 | 50 | – | – | – | – | –
CC(C)(C)c1ccc(Oc2nsnc(Cl)c2=O)cc1 [Compound 4, 3-chloro-5-(4-tert-butylphnoxy)-4H--1,2,6-thiadiazin-4-one] | 4 (80-100) | 3 (60-80) | 0 (0-10) | 0 (0-10) | 13 | 13 | 0 | 17 | – | – | – | – | –
COc1ccc(Cl)c(Oc2nsnc(Cl)c2=O)c1 [Compound 51, 3-chloro-5-[(2-chloro-5-methoxy)phenoxy]-4H--1,2,6-thiadiazin-4-one] | 4 (80-100) | 3 (60-80) | 1 (10-40) | 0 (0-10) | 52 | 75 | 81 | 90 | – | – | – | – | –
COc1ccc(Oc2nsnc(Cl)c2=O)cc1 [Compound 5, 3-chloro-5-(4-methoxyphenoxy)4H--1,2,6-thiadiazin-4-one] | 2 (40-60) | 2 (40-60) | 2 (40-60) | 0 (0-10) | 100 | 100 | 100 | 100 | – | – | – | – | –
O=c1c(Cl)nsnc1Oc1ccccc1Cl [Compound 14, 3-chloro-5-(2-chlorophenoxy)-4H--1,2,6-thiadiazin-4-one] | 0 (0-10) | 0 (0-10) | 0 (0-10) | 0 (0-10) | 86 | 79 | 100 | 100 | – | – | – | – | –
CC(=O)Nc1ccccc1Oc1nsnc(Cl)c1=O [Compound 43, 3-[(2-acetylamino)-phenoxy]-5-chloro-4H--1,2,6-thiadiazin-4-one] | 4 (80-100) | 4 (80-100) | 4 (80-100) | 2 (40-60) | 80 | 100 | 100 | 100 | – | – | – | – | –
O=c1c(Cl)nsnc1Oc1c(Cl)cccc1Cl [Compound 18, 3-chloro-5-(2,6-dichlorophenoxy)-4H--1,2,6-thiadiazin-4-one] | 3 (60-80) | 0 (0-10) | 0 (0-10) | 0 (0-10) | 69 | 90 | 90 | 84 | – | – | – | – | –
O=C(O)Cc1ccccc1Oc1nsnc(Cl)c1=O [Compound 45, 3-(2-carboxymethylphenoxy)-5-chloro-4H--1,2,6-thiadiazin-4-one] | 4 (80-100) | 4 (80-100) | 0 (0-10) | 0 (0-10) | 4 | 0 | 25 | 54 | – | – | – | – | –
O=c1c(Cl)nsnc1Oc1cccc(Cl)c1 [Compound 13, 3-chloro-5-(3-chlorophenoxy)-4H--1,2,6-thiadiazin-4-one] | 0 (0-10) | 0 (0-10) | 0 (0-10) | 0 (0-10) | 45 | 59 | 86 | 100 | – | – | – | – | –
O=C(O)c1ccc(Oc2nsnc(Cl)c2=O)cc1 [Compound 50, 3-(4-carboxyphenoxy)-5-chloro-4H--1,2,6-thiadiazin-4-one] | 4 (80-100) | 2 (40-60) | 0 (0-10) | 0 (0-10) | 33 | 21 | 54 | 63 | – | – | – | – | –
